Experimental data reported in patent US4056674A, “Derivatives of 3-deazaguanine” (priority 1975, dated 1977).
In brackets after ≈: the same amount, converted by molar mass. Several values for one entry are separate records, joined by “and”; a condition that tells them apart may be missing. Equal entries are not always repeated. Where two headings read alike, the source gives them in different places.

Legend:
virus = details: background statement; cited from earlier work
[1] = system: vesicular stomatitis virus; type: cell-based; details: VSV; KB or RK-13 cells; VR >0.5 significant, <0.5 slight antiviral activity
influenza virus, type Ao = test: In vitro antiviral, inhibition of virus-induced CPE, IV/Ao; type: cell-based; details: KB or RK-13 cells, VR >0.5 significant, <0.5 slight antiviral activity
rhinovirus, type 1A = test: In vitro antiviral, inhibition of virus-induced CPE, RV/1A; type: cell-based; details: KB or RK-13 cells, VR >0.5 significant, <0.5 slight antiviral activity
myxoma virus = test: In vitro antiviral, inhibition of virus-induced CPE, MV; type: cell-based; details: KB or RK-13 cells, VR >0.5 significant, <0.5 slight antiviral activity
Description: (§1) In this example, compounds 3, 4, 13, 16, 20, 22, 29 and 30 were tested to determine their in vitro antiviral efficacy, using the inhibition virus-induced cytopathogenic effect (CPE) method of Sidwell, et al. (Applied Microbiology 22:797-801, 1971). Briefly, the CPE procedure includes the suspension of the antiviral agent in a cell culture medium consisting of vitamins, amino acids, serum, buffer, penicillin, streptomycin and indicator dye in water. The virus suspended in the cell culture medium was added to an established monolayer of KB cells or RK-13 cells, and an equal volume of the antiviral agent was then added within 15 minutes. The infected treated cells were graded following microscopic examination. Controls for each experiment include cell controls cells and cell culture medium only), virus controls (cell and virus cell culture medium) and toxicity controls (cells and chemical and cell culture medium).
(§2) The virus rating (VR) system of Sidwell et al., described in Applied Microbiology, supra, was used to evaluate the degree of significance of CPE inhibition.

human cytomegalovirus = test: In vitro antiviral, inhibition of virus-induced CPE, HCMV; type: cell-based; details: KB or RK-13 cells, VR >0.5 significant, <0.5 slight antiviral activity
pseudorabies virus = type: cell-based; details: PRV; KB or RK-13 cells; VR >0.5 significant, <0.5 slight antiviral activity
L1210 cells [2] = test: Inhibition of incorporation of 3H-uridine into the acid-insoluble fraction of L1210 cells; type: cell-based; details: Mus musculus; 10^-5 M; L1210 cells in tissue culture
Description: (§3) In this example compound 30 was tested for antitumor activity in mice. […] A 10^-5 M concentration of compound 30 caused 50% inhibition of the incorporation of ^3 H-thymidine and ^3 H-uridine into the acidinsoluble fraction of L1210 cells in tissue culture. […] Ara C (cytosine arabinoside) was included as a standard.

RV/2: rhinovirus, type 1 = test: In vitro antiviral, inhibition of virus-induced CPE, RV/2; type: cell-based; details: KB or RK-13 cells, VR >0.5 significant, <0.5 slight antiviral activity
rhinovirus, type 13 = test: In vitro antiviral, inhibition of virus-induced CPE, RV/13; type: cell-based; details: KB or RK-13 cells, VR >0.5 significant, <0.5 slight antiviral activity
Proteus = test: In vitro antibacterial, broth dilution assay, Proteus; type: cell-based; details: read-out: Average MIC
Description: (§4) In this example compounds 7 and 30 were tested to determine their in vitro antibacterial activity. Clinical isolates of pathogens were used for this example. In vitro sensitivity of these organisms were quantitatively determined by broth dilution assay. Serial dilutions were prepared in chemically defined medium in a range from 100 to 0.01 μg/ml. The minimal Inhibitory Concentration (MIC) was recorded as the highest dilution of compound which prevented visible growth of the pathogen following 24 hr incubation at 35°.

leukemia L1210 = test: Activity against leukemia L1210 in BDF1 female mice; type: in vivo; details: qd [1-9]
Description: as §3
All animals were inoculated (i.p) with 10^5 leukemic cells. Treatment
was started 24 hours after transplant. Figures in parenthesis denote 21

L1210 cells [3] = test: Cytotoxicity to L1210 cells in tissue culture; type: cell-based
Description: as §3

LD10 = test: LD10; design: species or system mice; details: mouse, in vivo
murine cytomegalovirus = test: In vitro antiviral, inhibition of virus-induced CPE, MCMV; type: cell-based; details: KB or RK-13 cells, VR >0.5 significant, <0.5 slight antiviral activity
Description: as §1, §2

rhinovirus, type 8 = test: In vitro antiviral, inhibition of virus-induced CPE, RV/8; type: cell-based; details: KB or RK-13 cells, VR >0.5 significant, <0.5 slight antiviral activity
adenocarcinoma 755 = test: Inhibition of growth of subcutaneous implants of adenocarcinoma 755 in C57 Blk/6 female mice; type: in vivo; details: 40 mg/kg i.p. (qd, 1-7)
L1210 cells [4] = test: Inhibition of incorporation of 3H-thymidine into the acid-insoluble fraction of L1210 cells; type: cell-based; details: Mus musculus; 10^-5 M; L1210 cells in tissue culture
Description: as §3

[5] = system: parainfluenza virus, type 1; test: In vitro antiviral, inhibition of virus-induced CPE, PIV/1; type: cell-based; details: PIV/1; KB or RK-13 cells; VR >0.5 significant, <0.5 slight antiviral activity
Hela cells = test: Cytotoxicity to Hela cells in tissue culture; type: cell-based
adenovirus, type 3 = test: In vitro antiviral, inhibition of virus-induced cytopathogenic effect (CPE), AV/3; type: cell-based; details: KB or RK-13 cells, VR >0.5 significant, <0.5 slight antiviral activity
rhinovirus, type 30 = test: In vitro antiviral, inhibition of virus-induced CPE, RV/30; type: cell-based; details: KB or RK-13 cells, VR >0.5 significant, <0.5 slight antiviral activity
Description: as §1, §2

vaccinia virus = type: cell-based; details: VV; KB or RK-13 cells; VR >0.5 significant, <0.5 slight antiviral activity
[6] = system: Parainfluenza virus, type 3; test: In vitro antiviral, inhibition of virus-induced CPE, PIV/3; type: cell-based; details: PIV/3; KB or RK-13 cells; VR >0.5 significant, <0.5 slight antiviral activity
rhinovirus, type 56 = test: In vitro antiviral, inhibition of virus-induced CPE, RV/56; type: cell-based; details: KB or RK-13 cells, VR >0.5 significant, <0.5 slight antiviral activity
Escherichis = test: In vitro antibacterial, broth dilution assay, Escherichia; type: cell-based; details: read-out: Average MIC
Description: as §4

[7] = system: herpes simplex virus, type 1; test: In vitro antiviral, inhibition of virus-induced CPE, HSV/1; type: cell-based; details: KB or RK-13 cells, VR >0.5 significant, <0.5 slight antiviral activity
Salmonella = test: In vitro antibacterial, broth dilution assay, Salmonella; type: cell-based; details: clinical isolates, 24 hr at 35°
Description: as §4

Escherichia Coli = test: In vivo antibacterial activity, survival of mice after intraperitoneal challenge with Escherichia coli 138; design: species or system white mice (ICR, COX 17 to 20 g); details: 50 mg/kg × 2, oral, 7 days
Description: In this example compounds 7 and 23 were tested along with, as a comparison, the known antibiotic Gentamycin, to determine their in vivo antibacterial activity. Experimental infections were produced in groups of 20 white mice (ICR, COX 17 to 20 g).
*Ec 138: Tetracycline and Streptomycin
**The LD50 is the challenge that killed 50% of the infected mice; th
LD50 values for the pathogen were calculated by the method of Probit

Citrobacter = test: In vitro antibacterial, broth dilution assay, Citrobacter; type: cell-based; details: clinical isolates, 24 hr at 35°
Description: as §4

Shigella = test: In vitro antibacterial, broth dilution assay, Shigella; type: cell-based; details: clinical isolates, 24 hr at 35°
Description: as §4

Enterobacter = test: In vitro antibacterial, broth dilution assay, Enterobacter; type: cell-based; details: clinical isolates, 24 hr at 35°
Description: as §4

Providence = test: In vitro antibacterial, broth dilution assay, Providence; type: cell-based; details: clinical isolates, 24 hr at 35°
Description: as §4

Pseudomonas = test: In vitro antibacterial, broth dilution assay, Pseudomonas; type: cell-based; details: clinical isolates, 24 hr at 35°
Description: as §4

Klebsiella = test: In vitro antibacterial, broth dilution assay, Klebsiella; type: cell-based; details: clinical isolates, 24 hr at 35°
Description: as §4

Serratia = test: In vitro antibacterial, broth dilution assay, Serratia; type: cell-based; details: clinical isolates, 24 hr at 35°
Description: as §4

SMILES: NC(=S)c1nc[nH]n1 [1,2,4-triazole-3thiocarboxamide]
- antiviral activity (virus): significant antiviral activity

SMILES: Nc1cc2nc[nH]c2c(=O)[nH]1 [Compound 30, 6-Amino-imidazo[4,5c]pyridin-4(5H)one]
- Virus rating (VR) [1]: 1.3
- Virus rating (VR) (influenza virus, type Ao): 0.5
- Virus rating (VR) (rhinovirus, type 1A): 0.3
- Virus rating (VR) (myxoma virus): 0.9
- Virus rating (VR) (human cytomegalovirus): 0.3
- Virus rating (VR) (pseudorabies virus): 0.3
- inhibition at 10 µM (L1210 cells [2]): 50%
- Virus rating (VR) (RV/2: rhinovirus, type 1): 1.3
- Virus rating (VR) (rhinovirus, type 13): 1.2
- MIC (Proteus; 24 h): 25 µg/mL (≈ 167 µM)
- 21 day survivors (leukemia L1210; 20 mg/kg i.p.): 0/6
- Average Mean Survival (leukemia L1210; 20 mg/kg i.p.): 10.83 days
- T/C (leukemia L1210; 20 mg/kg i.p.): 1.32
- increased the life span (leukemia L1210; 20 mg/kg i.p.): 32%
- ΔWt. (leukemia L1210; 20 mg/kg i.p.): +2.0 g
- 21 day survivors (leukemia L1210; 40 mg/kg i.p.): 1/6
- Average Mean Survival (leukemia L1210; 40 mg/kg i.p.): 12.00 days
- T/C (leukemia L1210; 40 mg/kg i.p.): 1.43
- increased the life span (leukemia L1210; 40 mg/kg i.p.): 43%
- ΔWt. (leukemia L1210; 40 mg/kg i.p.): +0.4 g
- 21 day survivors (leukemia L1210; 80 mg/kg i.p.): 0/6
- Average Mean Survival (leukemia L1210; 80 mg/kg i.p.): 13.33 days
- T/C (leukemia L1210; 80 mg/kg i.p.): 1.63
- increased the life span (leukemia L1210; 80 mg/kg i.p.): 63%
- ΔWt. (leukemia L1210; 80 mg/kg i.p.): +1.7 g
- cytotoxic to L1210 cells (L1210 cells [3]): cytotoxic
- LD10 (LD10): 500 mg/kg
- Virus rating (VR) (murine cytomegalovirus): 0.6
- Virus rating (VR) (rhinovirus, type 8): 1.3
- inhibition of the growth of subcutaneous implants (adenocarcinoma 755): 75% and 93%
- inhibition at 10 µM (L1210 cells [4]): 50%
- Virus rating (VR) [5]: 1.0
- cytotoxic to Hela cells (Hela cells): cytotoxic
- Virus rating (VR) (adenovirus, type 3): 1.1
- Virus rating (VR) (rhinovirus, type 30): 0.3
- Virus rating (VR) (vaccinia virus): 1.2
- Virus rating (VR) [6]: 1.0
- Virus rating (VR) (rhinovirus, type 56): 1.1
- MIC (Escherichis; 24 h): 6 µg/mL (≈ 40 µM)
- Virus rating (VR) [7]: 1.3

SMILES: NC(=O)c1nc[nH]n1 [1,2,4-triazole-3-carboxamide]
- antiviral activity (virus): significant antiviral activity

SMILES: Nc1cc2c(ncn2[C@@H]2O[C@H](CO)[C@@H](O)[C@H]2O)c(=O)[nH]1 [Compound 4, 6-Amino-1-β-D-ribofuranosylimidazo[4,5-c]pyridin-4(5H)-one]
- Virus rating (VR) [1]: 1.1
- Virus rating (VR) (influenza virus, type Ao): 0.1
- Virus rating (VR) (rhinovirus, type 1A): 0.1
- Virus rating (VR) (myxoma virus): 1.0
- Virus rating (VR) (human cytomegalovirus): 0.5
- Virus rating (VR) (pseudorabies virus): 0.3
- Virus rating (VR) (RV/2: rhinovirus, type 1): 1.2
- Virus rating (VR) (rhinovirus, type 13): 1.0
- Virus rating (VR) (rhinovirus, type 8): 1.2
- Virus rating (VR) [5]: 0.6
- Virus rating (VR) (adenovirus, type 3): 0.8
- Virus rating (VR) (vaccinia virus): 0.6
- Virus rating (VR) [6]: 0.6
- Virus rating (VR) (rhinovirus, type 56): 0.7
- Virus rating (VR) [7]: 0.9

SMILES: Nc1cc2ncn([C@@H]3O[C@H](CO)[C@@H](O)[C@H]3O)c2c(=O)[nH]1 [Compound 7, 6-amino-3-β-D-ribofuranosylimidazo[4,5-c]pyridin-4(5H)one]
- MIC (Salmonella): 5 µg/mL (≈ 17.7 µM)
- % survival (Escherichia Coli; challenge 1 LD50): 100%
- % survival (Escherichia Coli; challenge 10 LD50's): 100%
- % survival (Escherichia Coli; challenge 100 LD50's): 100%
- % survival (Escherichia Coli; challenge 1000 LD50's): 90%
- % survival (Escherichia Coli; challenge 10,000 LD50's): 75%
- MIC (Citrobacter): 5 µg/mL (≈ 17.7 µM)
- MIC (Shigella): 100 µg/mL (≈ 354 µM)
- MIC (Proteus; Proteus, clinical isolates, 24 hr at 35°): 10 µg/mL (≈ 35.4 µM)
- MIC (Enterobacter): 10 µg/mL (≈ 35.4 µM)
- MIC (Providence): 15 µg/mL (≈ 53.1 µM)
- MIC (Pseudomonas): 100 µg/mL (≈ 354 µM)
- MIC (Klebsiella): 8 µg/mL (≈ 28.3 µM)
- MIC (Serratia): 5 µg/mL (≈ 17.7 µM)
- MIC (Escherichis; Escherichis, clinical isolates, 24 hr at 35°): 0.5 µg/mL (≈ 1.77 µM)
